How the values were obtained:
[1] = tested on: transgenic tobacco events 28 and 30; assay: Resistance of Atwbc19 transgenic tobacco events to other antibiotics; assay type: in vivo, Nicotiana tabacum; conditions: Atwbc19-only transgenic events 28 and 30
[2] = tested on: Arabidopsis thaliana insertional knockout mutants; assay: Root growth of Arabidopsis insertional mutants on MSO media with kanamycin; assay type: in vivo; conditions: media with 100 mg/l kanamycin, 2 weeks
Description: Sequence-tagged insertional mutant lines for the three ABC transporters, Atwbc19 (SALK—107731), Atwbc18 (SALK—100187) and Atwbc16 (SALK—119868) were obtained from ABRC Arabidopsis knock-out library. Homozygosity was tested by PCR of genomic DNA using 3 primers (Table 1). Two of the primers are specific to the native gene and amplify a known fragment. The third primer is specific to the T-DNA. Where the T-DNA is inserted between the two gene specific primers, a smaller fragment is generated allowing the identification of insertion in the gene of interest. The fragment was sequenced to ensure that it mapped at the expected loci. Kanamycin resistance was assessed by growing the mutants on MSO media with and without 100 mg/l kanamycin. Stratified seeds were germinated on 4 Petri dishes with 6 plants for each line and placed vertically in a growth chamber at 25 degrees. Root length was measured after 2 weeks. To quantify NPTII protein levels, total protein was extracted from 100 mg of root and shoot tissue from seedlings germinated on MSO media for 2 weeks, with 2 replicate samples per line. An ELISA was performed using a kit according to the manufactures instructions (Agdia, Elkhart, Ind., USA).

[3] = tested on: Nicotiana tabacum cv Xanthi; assay: Root growth of T1 transgenic tobacco (pS15-ABC-dKan) on media with kanamycin; assay type: in vivo; conditions: 200 mg/l kanamycin, 3 weeks
Description: Segregation analysis was performed on MS media (Murashige et al., 1962) with B5 vitamins (Gamborg et al., 1968) and 3% sucrose (MSO media) containing 200 mg/l kanamycin. T1 seeds from plants transformed with pS15-ABC-dKan were surface sterilized and germinated on the media. Root growth analysis was performed as above on vertically positioned plates where 6 seeds per plate and 6 replicate plates for each event were germinated with and without 100 and 200 mg/l kanamycin. Root length was measured after 3 weeks. All experiments were performed in a 25° C. growth cabinet under constant 40 μE irradiance.

Escherichia coli DH5α = assay: Kanamycin resistance of transformed E. coli in 96-well microtiter plates (optical density 630 nm); assay type: cell-based; conditions: E. coli transformed with pKS-ABC, IPTG 1 mM, 24 hr
Description: Escherichia coli DH5α was obtained from stock strains available within our lab. All strains were cultured on LB media. Three plasmids were used in this study. pKS-ABC contains the Atwbc19 gene under the control of the lacZ promoter in pBluescript II SK+; pKS-nptII contains the nptII gene with the lacZ promoter in pBluescript II SK+; and pKS is pBluescript II SK+ with no inserted genes as a control. The microorganisms were maintained in glycerol stocks and stored at −80° C. Working cultures were obtained by inoculating a loopful of culture into 50 ml LB broth supplemented with ampicillin (100 mg/l) and incubated at 37° C. for 24 hr.
E. coli DH5α were transformed with pKS, pKS-ABC, and pKS-nptII by freeze/thaw method (Hanahan 1983). The gram-negative […] Escherichia coli DH5α were used in all transformations. For selection of transformants, aliquots of bacteria were spread onto solidified LB medium supplemented with ampicillin (100 mg/l) and incubated at 37° C.
Isopropyl-b-D-thiogalctopyranoside (IPTG) at 1 mM was used to induce Atwbc19 expression. Each well was filled with 199 μl LB, IPTG and varying concentrations of kanamycin or gentamycin and 50 μl bacterial treatment (DH5α transformed with pKS-ABC, DH5α transformed with pKS-nptII, DH5α transformed with pKS or none). […] Optical densities were measured at 630 nm (Biorad) after incubating microtiter plates at 37° C. for 24 hr.

## gentamycin
[1]
  resistance of plants to the antibiotic: no resistance

## [H]/N=C(/N)N[C@H]1[C@H](O)[C@@H](O)[C@H](O[C@@H]2O[C@@H](C)[C@](O)(C=O)[C@H]2O[C@@H]2O[C@@H](CO)[C@H](O)[C@@H](O)[C@@H]2NC)[C@@H](N/C(N)=N\[H])[C@@H]1O [streptomycin]
[1]
  resistance of plants to the antibiotic: no resistance

## O=C(N[C@H](CO)[C@H](O)c1ccc([N+](=O)[O-])cc1)C(Cl)Cl [chloramphenicol]
[1]
  resistance of plants to the antibiotic: no resistance

## NC[C@H]1O[C@H](O[C@H]2[C@H](O)[C@@H](O[C@H]3O[C@H](CO)[C@@H](O)[C@H](N)[C@H]3O)[C@H](N)C[C@@H]2N)[C@H](O)[C@@H](O)[C@@H]1O [kanamycin]
[2]; line SALK—100187 (Atwbc18 mutant)
  root growth (root length): 1.82±0.25 cm
[2]; line SALK—107731 (Atwbc19 mutant)
  root growth (root length): 0.31±0.04 cm
[2]; line SALK—119868 (Atwbc16 mutant)
  root growth (root length): 0.30±0.03 cm
[3]; Atwbc19 transgenic event #28, T1 seeds
  Root length: 1.03±0.55 cm
[3]; Atwbc19 transgenic event #30, T1 seeds
  Root length: 2.02±1.16 cm
[3]; control (non-transgenic) tobacco
  Root length: 0.37±0.09 cm
Escherichia coli DH5α
  kanamycin concentrations to which Atwbc19 confers resistance: below 12.5 mg/l

## NCC[C@H](O)C(=O)N[C@@H]1C[C@H](N)[C@@H](O[C@H]2O[C@H](CN)[C@@H](O)[C@H](O)[C@H]2O)[C@H](O)[C@H]1O[C@H]1O[C@H](CO)[C@@H](O)[C@H](N)[C@H]1O [amikacin]
[1]
  resistance of plants to the antibiotic: no resistance
